One test relates to Ssa1. The arrangement: method as in PMID 8939938, PMID 9753476, PMID 10462452. Conditions: absence of nucleotide; ref [56], [60], [61]; cited from earlier work.
Test [1] addresses T1, DnaK (Escherichia coli, UniProt P0A6Y8).
T1 construct: His6-Smt3 (N, cleaved yes); made in house; host or cells: E. coli BL21(DE3)
The test is described as follows: Peptide binding assay (fluorescence polarization), control/deglutathionylated DnaK. The arrangement: species or system E. coli. Particulars: ADP state; FP. As for the experimental part:
FP values are expressed in millipolarization units. All statistical analyses were performed with Origin 8 software.
FIGURE 6.
For orientation: Polarisation of emitted light reports the rotation of a fluorescent probe.

The target of test [2] is T1, DnaK. On the set-up: species or system E. coli. Particulars: 1 mM ADP/ATP/NRLLLTG peptide, 1 h room temperature before DTNB; mean of three. The protocol: A standard curve was obtained using 0–100 μM free cysteine. […] The number of active cysteine residues can be calculated by dividing the concentration of free thiols in the protein by the concentration of protein.
FIGURE 1. […] The N-terminal NBD and its subdomains IA, IB, IIA, and IIB and the C-terminal SBD are indicated. […] The number of free thiols was calculated from the absorbance at 412 nm using a standard curve.

For test [3], the target named is T1, DnaK. The arrangement: species or system E. coli. Conditions: 0.5 mM ATP or ADP premixed 30 min with DnaK T199A; GSH and diamide. As for the experimental part:
To deglutathionylate the protein, 10 mM DTT was added to the reaction mixture. GSH, diamide, and/or DTT was removed by dialysis.
(§1) Cooled protein was mixed with the dye and incubated in the dark at room temperature for at least 30 min. SDS-PAGE was performed to separate protein and surplus dye. Fluorescence of Alexa Fluor 350 dye was observed using excitation at 254 nm with a UV lamp.
(§2) FIGURE 3. […] Unmodified cysteine residues for untreated control, glutathionylated, and deglutathionylated samples were labeled with fluorescent dye.

For test [4], the system named is heat-induced luciferase aggregation. On the set-up: method as in PMID 15109915. Particulars: ref [68]; cited from earlier work.
A further test addresses T2, glutathionylated DnaK (Escherichia coli, UniProt P0A6Y8).
T2 construct: His6-Smt3 (N, cleaved yes); made in house; host or cells: E. coli BL21(DE3)
Put plainly: Deglutathionylation of glutathionylated DnaK by Grx3/GSH. On the set-up: species or system E. coli. Particulars: 10 μM glutathionylated DnaK, 30 min, 37 °C, […] Grx3 with 20 μM GSH. The protocol:
[…] GSH, diamide, and/or DTT was removed by dialysis.
as §1, §2

The test system of a further test is Hsp72. On the set-up: method as in PMID 15540944. Conditions: modification at Cys-267; ref [62]; cited from earlier work.

T1 sequence (P0A6Y8 2-638): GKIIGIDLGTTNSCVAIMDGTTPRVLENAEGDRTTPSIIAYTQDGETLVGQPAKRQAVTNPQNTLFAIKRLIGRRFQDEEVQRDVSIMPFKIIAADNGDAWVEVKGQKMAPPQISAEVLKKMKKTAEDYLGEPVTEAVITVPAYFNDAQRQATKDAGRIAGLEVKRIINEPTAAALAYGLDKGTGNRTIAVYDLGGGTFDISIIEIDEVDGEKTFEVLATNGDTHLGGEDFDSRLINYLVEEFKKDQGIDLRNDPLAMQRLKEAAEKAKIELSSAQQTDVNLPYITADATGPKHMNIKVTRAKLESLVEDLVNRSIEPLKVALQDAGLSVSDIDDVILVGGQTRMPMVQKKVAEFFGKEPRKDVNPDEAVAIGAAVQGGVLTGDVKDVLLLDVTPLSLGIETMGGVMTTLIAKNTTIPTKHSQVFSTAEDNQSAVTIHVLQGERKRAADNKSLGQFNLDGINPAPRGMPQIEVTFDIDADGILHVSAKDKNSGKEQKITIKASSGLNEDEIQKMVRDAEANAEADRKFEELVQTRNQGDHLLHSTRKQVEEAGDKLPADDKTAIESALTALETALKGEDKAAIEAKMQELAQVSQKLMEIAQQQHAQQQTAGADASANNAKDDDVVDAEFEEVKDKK
T2 sequence (P0A6Y8 2-638): as above

`CCN1C(=O)C=CC1=O` [N-ethylmaleimide]: the “effect of modification on Ssa1” value in the test on Ssa1 was “reduces transmembrane transport as well as the ATPase and luciferase refolding activities of Ssa1”.

With `CC(C)C[C@H](NC(=O)[C@H](C)NC(=S)Nc1ccc2c(c1)C(=O)OC21c2ccc(O)cc2Oc2cc(O)ccc21)C(=O)N[C@@H](CC(C)C)C(=O)N[C@@H](CC(C)C)C(=O)N[C@@H](CO)C(=O)N[C@@H](C)C(=O)N1CCC[C@H]1C(=O)N[C@@H](CCCNC(=N)N)C(=O)N[C@@H](CCCNC(=N)N)C(=O)O`, the “effect of ADP binding to DnaK on binding affinity of peptide” value on DnaK [1] was “did not obviously alter the binding affinity of peptide”.

In the case of `Nc1ncnc2c1ncn2[C@@H]1O[C@H](COP(=O)(O)OP(=O)(O)OP(=O)(O)O)[C@@H](O)[C@H]1O` [ATP], the “effect on cysteine reactivity of DnaK” value on DnaK [2] is “inhibited cysteine reactivity of DnaK to different degrees”. The “effect on glutathionylation of DnaK” value at DnaK [3] is given as “no glutathionylation of DnaK occurred”.

Consider “Hsc70: Hsp70 family member whose glutathionylation is cited”, for which the “effect of glutathionylation of Hsc70” value in test [4] is listed as “enhance inhibition of heat-induced luciferase aggregation”.

Consider `N[C@@H](CCC(=O)N[C@@H](CS)C(=O)NCC(=O)O)C(=O)O` [GSH], for which the “deglutathionylation of DnaK” value on glutathionylated DnaK is given as “worked synergistically to cause deglutathionylation of DnaK”.

With `Nc1ncnc2c1ncn2[C@@H]1O[C@H](COP(=O)(O)OP(=O)(O)O)[C@@H](O)[C@H]1O` [ADP], the “effect on cysteine reactivity of DnaK” value at DnaK [2] is reported as “inhibited cysteine reactivity of DnaK to different degrees”. The “effect on glutathionylation of DnaK” value on DnaK [3] is given as “no glutathionylation of DnaK occurred”.

On to `CCCCCC(O)C=CC=O` (stereo not drawn) [4-Hydroxy-2-nonenal], for which the “effect on protein refoldase activity of Hsp72” value with Hsp72 is recorded as “inhibits its protein refoldase activity”.

These data come from PMC4807281 (The Journal of Biological Chemistry, 2016).
